Assay results published in patent US8211945B2, “Carba-sugar amine derivative and glycolipid metabolic disorder treating agent containing the same as active ingredient” (Seikagaku Corporation, priority 2001, dated 2012).
Substitutions are numbered along the chain they refer to.

How the values were obtained:
Assay in all cases: Mutant β-galactosidase activity in model cells, 4 days culture
Format in all cases: cell-based
[1] = biological target: T1, human mutant β-galactosidase G123R (Homo sapiens, UniProt P16278, G123R)
T1 construct: expressed in transfected cells; host or cells: SV40-immortalized skin fibroblasts of a β-galactosidase-deficient knockout mouse
T1 sequence (P16278 29-677 G123R): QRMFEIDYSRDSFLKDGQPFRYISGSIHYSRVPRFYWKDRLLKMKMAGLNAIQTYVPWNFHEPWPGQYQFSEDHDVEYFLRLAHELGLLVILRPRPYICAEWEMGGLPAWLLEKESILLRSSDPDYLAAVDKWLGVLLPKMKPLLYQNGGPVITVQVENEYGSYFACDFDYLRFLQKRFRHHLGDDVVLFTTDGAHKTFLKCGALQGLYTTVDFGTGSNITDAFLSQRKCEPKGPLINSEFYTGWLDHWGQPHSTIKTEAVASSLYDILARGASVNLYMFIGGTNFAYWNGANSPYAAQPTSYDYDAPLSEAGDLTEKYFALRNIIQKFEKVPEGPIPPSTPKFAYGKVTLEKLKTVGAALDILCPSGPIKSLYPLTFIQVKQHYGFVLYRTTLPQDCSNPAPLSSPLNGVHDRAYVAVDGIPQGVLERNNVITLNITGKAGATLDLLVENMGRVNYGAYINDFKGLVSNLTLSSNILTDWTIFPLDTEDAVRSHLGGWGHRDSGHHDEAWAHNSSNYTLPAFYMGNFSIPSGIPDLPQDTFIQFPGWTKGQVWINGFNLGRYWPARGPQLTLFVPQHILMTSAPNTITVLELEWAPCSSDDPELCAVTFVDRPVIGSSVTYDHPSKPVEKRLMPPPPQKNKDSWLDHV
Source text: (§1) Cultured skin fibroblasts of a β-galactosidase-deficient knockout mouse was immortalized by introducing an SV40 viral gene, and enzyme genes integrated into pSV2neo and an expression vector were also introduced simultaneously, thereby establishing a model cell (Brain Dev., 23(5), 284-287, 2001). The genes used are human normal (GP8) and mutant β-galactosidase gene Y316C, G123R (infantile GM1-gangliosidosis), R201C (juvenile GM1-gangliosidosis), 151T, T82M, R201H, R263S, R457Q (adult GM1-gangliosidosis), W273L, Y83H, R482H and R482C (Morquio-B disease) (Hum. Genet., 93(2), 109-114, 1994).
(§2) As a control substance, 0.5 mM N-(n-butyl)-deoxygalactonojirimycin (NB-DGJ: The Journal of Biological Chemistry, 269, 27108-27114 (1994)) was used, and the substance 18 of the present invention was used in an amount of 0.2 μM.
(§3) Specifically, after culturing the model cell for 4 days using a cell culture medium (10% FCS DMEM) containing the substance 18 of the present invention, the resulting cells were recovered and diluted such that the amount of protein in the suspension became a predetermined level, and then enzyme activity in the diluted suspension was measured. Using 4-methylumbelliferyl-β-D-galactopyranoside as the fluorescent substrate, the enzyme activity during 30 minutes was measured at 37° C.

[2] = biological target: T2, human mutant β-galactosidase R201C (Homo sapiens, UniProt P16278, R201C)
T2 construct: from tissue
T2 sequence (P16278 29-677 R201C): T1 sequence (P16278 29-677 G123R) with R95G, R173C
Source text: as §1, §2, §3

[3] = biological target: T3, human mutant β-galactosidase R201H (Homo sapiens, UniProt P16278, R201H)
T3 construct: expressed in transfected cells; host or cells: SV40-immortalized skin fibroblasts of a β-galactosidase-deficient knockout mouse
T3 sequence (P16278 29-677 R201H): T1 sequence (P16278 29-677 G123R) with R95G, R173H
Source text: as §1, §2, §3

SMILES | enzyme activity, Control ([1]; transferred gene G123R, control substance 0.5 mM NB-DGJ) | enzyme activity, Control ([2]; transferred gene R201C, control substance 0.5 mM NB-DGJ) | enzyme activity, Control ([3]; transferred gene R201H, control substance 0.5 mM NB-DGJ) | Relative ratio (×100%) ([1]; G123R, substance 18 vs control) | enzyme activity ([1]; transferred gene G123R, 0.2 μM, 4 days) | enzyme activity increased in comparison with the control ([2]; R201C, 0.2 μM) | Relative ratio (×100%) ([2]; R201C, substance 18 vs control) | enzyme activity ([2]; transferred gene R201C, 0.2 μM, 4 days) | enzyme activity increased in comparison with the control ([3]; R201H, 0.2 μM) | Relative ratio (×100%) ([3]; R201H, substance 18 vs control) | enzyme activity ([3]; transferred gene R201H, 0.2 μM, 4 days)
CCCCN1C[C@H](O)[C@@H](O)[C@@H](O)[C@H]1CO [Control, N-(n-butyl)-deoxygalactonojirimycin, reference compound] | 0.13 | 20.16 | 19.28 | – | – | – | – | – | – | – | –
CCCCCCCCN[C@@H]1C=C(CO)[C@H](O)C(O)[C@@H]1O (stereo partly drawn) [Substance 18, N-octyl-5a-carba-α-L-arabino-hexo-5(5a)-enopyranosylamine] | – | – | – | 1.55 ×100% | 0.20 | ≥ 150% | 2.43 ×100% | 48.88 | ≥ 150% | 4.46 ×100% | 86.05
